Article PMC10932281, “A Combination of β-Aescin and Newly Synthesized Alkylamidobetaines as Modern Components Eradicating the Biofilms of Multidrug-Resistant Clinical Strains of Candida glabrata” (International Journal of Molecular Sciences, 2024)
Values after ≈ are worked out from the molar mass of the structure shown. Where two headings read alike, the source gives them in different places.

Experiments:
[1] = system: C. glabrata 2586 clinical strain; test: MIC90/MFC, EUCAST broth microdilution; assay type: cell-based, Candida glabrata
[2] = system: Balb/3T3 mouse embryonic fibroblasts; test: Cell proliferation assay (MTT test); assay type: cell-based; set-up: Survival of the tested cell line: dose or concentration left out as unconfirmed; conditions: 24 h
Method: Balb/3T3 (ATCC CCL-163) mouse embryonic fibroblasts were cultured in DMEM medium supplemented with 10% fetal bovine serum, 1 mM L-glutamine, and a 1% penicillin/streptomycin solution and were used for our cytotoxicity studies. The cells were cultured at 37 °C and 5% CO2 until the cell density of 10^6 mL^−1 was obtained. Such cells were then seeded in 24-well tissue microplates (2 × 10^4 cells per well) and allowed to adhere overnight under the abovementioned conditions. Cytotoxicity tests were carried out on the cells prepared in this way.
The newly synthesized AABs (C9, C11, C13, and C15) were selected based on previous studies. They were analyzed at the concentrations of 0.25, 0.5, 1, 2, and 3 µM. […] The BALB-3T3 cells were treated with the prepared mixtures, dissolved in a complete cell culture medium, and then incubated for 24 h under the abovementioned conditions. Three independent replicates were performed for each combination of compounds.
The cytotoxic effect of the tested compounds in combination with β-AE was evaluated by measuring mitochondrial dehydrogenase activity using the MTT assay. After a 24 h incubation period, the medium supplemented with the 1mM MTT solution was added to each well. The cultures were continued for another 4 h under the conditions enriched with 5% CO2. After this time, the supernatant was collected, and MTT formazan was extracted from the cells using DMSO. The reaction was then stopped with Sörensen buffer (0.1 mol/L glycine; 0.1 mol/L NaCl; and pH 10.5). The percentage of cytotoxicity was calculated by comparing the absorbance values (λ = 560 nm) of the test sample to the control sample, which was untreated fibroblast cells. In the test performed, the negative control (C−) (sample not treated; PBS added) and positive control (C+) were fibroblast cells treated with 1% SDS [60].

[3] = system: C. glabrata 2853 clinical strain; test: MIC90/MFC, EUCAST broth microdilution; assay type: cell-based, Candida glabrata
C. glabrata ATCC 90030 = test: MIC90/MFC, EUCAST broth microdilution; assay type: cell-based, Candida glabrata
sheep red blood cells = test: Hemolysis assay; assay type: cell-based
Method: This test was performed according to a modified method. The hemolytic activity of the compounds was determined using sheep red blood cells. The blood was centrifuged (2000 RPM; 15 min) and rinsed 3 times with PBS. A total of 25 µL of erythrocytes for each sample were added to 500 µL of PBS to obtain the final concentration for the newly synthesized AABs: 0.25 µM, 0.5 µM; 1 µM, 2 µM; and 3 µM, and for β-AE, obtaining the following final concentrations: 100 µg/mL; 250 µg/mL; 500 µg/mL; 750 µg/mL; and 1000 µg/mL. The negative control (C−) consisted of erythrocytes suspended in PBS, and the positive control consisted of erythrocytes suspended in a 1% SDS solution. The samples were incubated for 2 h at 37 °C with shaking at 140 RPM. After this time, the blood cells were centrifuged (10 min; 2500 RPM), and 300 μL of the supernatant was transferred into a 96-well titration plate. Absorbance measurements were performed at a wavelength of λ = 540 nm. Measurements were performed in 10 repetitions. Finally, the values that were obtained from the samples treated with the test compound (OD test) were normalized relative to the positive (100% lysis; OD (C+)) and negative (untreated; OD (C−)) control samples to give the hemolysis ratio (HR) by using the following equation: HR (%) = OD test−OD (C−)/OD (C+) − OD (C−) × 100%.

[4] = system: C. glabrata ATCC 90030 biofilm; test: Biofilm eradication on polystyrene, fluorescence microscopy (Syto9/PI); assay type: cell-based, Candida glabrata
Method: (§1) C. glabrata biofilm eradication on polystyrene surfaces was assessed according to the following procedure: 1 mL of C. glabrata culture, 10^6 CFU/mL in RMPI 1640 MOPS-buffered medium, was pipetted into the wells of a 48-well adherent plate. Cultures were incubated at 37 °C for 72 h with shaking (400 RPM). […] Non-treated cells were used as the control. This experiment was carried out in triplicate. The analysis of the biofilm eradication of C. glabrata strains on polystyrene surfaces was performed using fluorescence microscopy (FM). For further information, see Section 4.12. below.
(§2) The 72 h biofilm of C. glabrata strains on polystyrene surfaces was stained on 48-well adherent plates with 1 µL of propidium iodide (Ex λ = 543 nm/Em λ = 617 nm) and 1 µL of SYTO9 (Ex λ = 488 nm/Em λ = 503 nm) for 30 min using a LIVE/DEAD BacLight Bacterial Viability Kit (Thermo Fisher Scientific, Waltham, MA USA). Imaging was performed using a fluorescence microscope (FM) BX51 (Olympus, Tokyo, Japan) equipped with an Orca Flash 40 camera (Hamamatsu, Hamamatsu City, Japan) and 10× objective Plan APO. Scale bar = 100 µm. Detailed computer qualitative and quantitative analyses of the obtained pictures were performed by estimating the coverage area on the polystyrene plate (the percentage of the area occupied by the fungal biofilm). The cell viability analysis was performed by calculating the fluorescence intensity of the dyes (Syto9/PI) used. The acquired images were processed and analyzed using Fiji/ImageJ software ver. 1.53c (NIH, Bethesda, MD, USA). First, maximum intensity projections (MIPs) were obtained from stacks of images. The areas of the binary images were transferred into the original live and dead channel MIP images. The mean fluorescence intensities of all detected objects per field of view were calculated using ImageJ’s Analyze Threshold function (Software: ImageJ version 1.53 from Softonic).

C. glabrata 2853 biofilm = test: as above; assay type: cell-based, Candida glabrata
Method: as §1, §2

C. glabrata 2586 biofilm = test: as above; assay type: cell-based, Candida glabrata
Method: as §1, §2

ERG11 and ALS3 = system: ERG11 and ALS3; set-up: method as in PMID 37508306; conditions: qRT-PCR; ref [12]; cited from earlier work
[5] = system: C. glabrata clinical isolate C27; set-up: method as in PMID 37508306; conditions: ref [12]; cited from earlier work
[6] = Nakaseomyces glabratus, AAB alone, read-out: MIC converted to

Compound: CCCCCCCCCC(=O)N(C)CCC[N+](C)(C)CC(=O)[O-] [C9]
- MIC90 ([1]; AAB alone): 3 µM/mL
- MIC [1, 6]: 985 µg/mL (≈ 3000 µM)
- Surviving cells ([2]; 0.25 to 3 µM/mL): 100%
- MIC90 ([3]; AAB alone): 1 µM/mL
- MIC [3, 6]: 328 µg/mL (≈ 1000 µM)
- MIC90 (C. glabrata ATCC 90030; ATCC 90030, AAB alone): 3 µM/mL
- MIC (C. glabrata ATCC 90030; Nakaseomyces glabratus, ATCC90030, reference strain, AAB alone, read-out: MIC converted to): 985 µg/mL (≈ 3000 µM)
- Hemolysis (sheep red blood cells; all concentrations tested (0.25 up to 3 µM)): not hemolytic at all concentrations tested
- Biofilm surface area ([4]; C9 combined with β-AE, optimal concentration configuration, control 88.77%): 1.37%
- Percentage of live cells ([4]; C9 in combination with β-AE, 72 h, control 98.35%): 1.64%
- viability at 1 µM ([4]; Nakaseomyces glabratus, ATCC90030, AAB alone 1 μM, 72 h, read-out: Biofilm Viability [%] 90030 Live): 83.6%
- viability at 2 µM ([4]; Nakaseomyces glabratus, ATCC90030, AAB alone 2 μM, 72 h, read-out: Biofilm Viability [%] 90030 Live): 23.8%
- viability at 3 µM ([4]; Nakaseomyces glabratus, ATCC90030, AAB alone 3 μM, 72 h, read-out: Biofilm Viability [%] 90030 Live): 21.4%
- Biofilm surface area (C. glabrata 2853 biofilm; C9 combined with β-AE, optimal concentration configuration, control 84.52%): 1.12%
- Percentage of live cells (C. glabrata 2853 biofilm; C9 in combination with β-AE, 72 h, control 97.46%): 3.33%
- viability at 1 µM (C. glabrata 2853 biofilm; Nakaseomyces glabratus, 2853BIOFILM, AAB alone 1 μM, 72 h, read-out: Biofilm Viability [%] 2853 Live): 82.2%
- viability at 2 µM (C. glabrata 2853 biofilm; Nakaseomyces glabratus, 2853BIOFILM, AAB alone 2 μM, 72 h, read-out: Biofilm Viability [%] 2853 Live): 76.2%
- viability at 3 µM (C. glabrata 2853 biofilm; Nakaseomyces glabratus, 2853BIOFILM, AAB alone 3 μM, 72 h, read-out: Biofilm Viability [%] 2853 Live): 66.4%
- Biofilm surface area (C. glabrata 2586 biofilm; C9 combined with β-AE, optimal concentration configuration, control 73.17%): 2.1%
- Percentage of live cells (C. glabrata 2586 biofilm; C9 in combination with β-AE, 72 h, control 97.99%): 1.93%
- viability at 1 µM (C. glabrata 2586 biofilm; Nakaseomyces glabratus, 2586BIOFILM, AAB alone 1 μM, 72 h, read-out: Biofilm Viability [%] 2586 Live): 3.28%
- viability at 2 µM (C. glabrata 2586 biofilm; Nakaseomyces glabratus, 2586BIOFILM, AAB alone 2 μM, 72 h, read-out: Biofilm Viability [%] 2586 Live): 3.01%
- viability at 3 µM (C. glabrata 2586 biofilm; Nakaseomyces glabratus, 2586BIOFILM, AAB alone 3 μM, 72 h, read-out: Biofilm Viability [%] 2586 Live): 2.52%

Compound: β-aescin
- MFC [1]: 256 µg/mL
- MIC90 [1]: 256 µg/mL
- Expression of ERG11 and ALS3 (ERG11 and ALS3): downregulation
- MFC [5]: 100 µg/mL
- MIC [5]: 50 µg/mL
- Survival of the tested cell line ([2]; 64–512): 83–85%
- MFC [3]: 128 µg/mL
- MIC90 [3]: 128 µg/mL
- MFC (C. glabrata ATCC 90030; ATCC 90030): 256 µg/mL
- MIC90 (C. glabrata ATCC 90030; ATCC 90030): 128 µg/mL
- Hemolysis (sheep red blood cells; 100 up to 1000 µg/mL, 2 h, 37 °C): hemolytic at all concentrations tested
- Biofilm Viability [%] 90030 Live ([4]; 1 MIC β-AE, 72 h): 76.70%
- Area of the biofilm ([4]; β-AE 1 × MIC, 72 h, control 88.77%): 68.98%
- Biofilm Viability [%] 2853 Live (C. glabrata 2853 biofilm; 1 MIC β-AE, 72 h): 92.13%
- Area of the biofilm (C. glabrata 2853 biofilm; β-AE 1 × MIC, 72 h, control 84.52%, listed as β-AE): 45.63%
- Biofilm Viability [%] 2586 Live (C. glabrata 2586 biofilm; 1 MIC β-AE, 72 h): 9.33%
- Area of the biofilm (C. glabrata 2586 biofilm; β-AE 1 × MIC, 72 h, control 73.17%, listed as β-AE): 59.3%
